According to patent publication US12139742B2, “Devices, systems, and methods for preparing a standardized inoculum for antimicrobial susceptibility testing” (Avails Medical, Inc., priority 2020, dated 2024):

What was measured:
[1] = test system: 23 different positive blood culture (PBC) samples comprising seven different species of bacteria; assay: Kirby-Bauer disk diffusion AST of 0.5 McFarland inocula (present method vs traditional subculture); type: cell-based; conditions: for # I: number of isolates deemed intermediate (I); for # R: number of isolates deemed resistant (R); for # S: number of isolates deemed susceptible (S)
Text: The standardized inoculum 1726 (e.g., the 0.5 McFarland inoculum) can then be used directly for antimicrobial susceptibility testing using manual disk diffusion or diluted further for automated AST platforms. For example, the standardized inoculum 1726 prepared using the method 1700 and system 1702 disclosed herein can be subjected to manual Kirby-Bauer disk diffusion AST or an automated AST platform such as the VITEK®2 platform.
(§1) Both the present method 1700 and traditional microbial subculturing techniques were used to prepare standardized 0.5 McFarland inocula for AST using Kirby-Bauer disk diffusion (see Table 1) and the automated VITEK2 GN81 AST platform (see Table 2).
(§2) Two sets of standardized 0.5 McFarland inocula were prepared from 23 different positive blood culture (PBC) samples comprising seven different species of bacteria. The 23 PBC samples included six samples of Escherichia coli (ECo), two samples of Enterobacter cloacae (ECl), three samples of Klebsiella pneumoniae (KPn), four samples of Klebsiella oxytoca (KOx), two samples of Citrobacter freundii (CFr), four samples of Serratia marcescens (SMa), and two samples of Klebsiella aerogenes (KAe).
(§3) The first set was prepared using the presently disclosed method 1700 (sample preparation time: between 60 minutes and 180 minutes) and the second set was prepared using traditional microbial subculturing techniques (sample preparation time: between 18 hours to 24 hours). The testing was conducted using the automated VITEK®2 GN81 AST platform (see Table 1) and manual Kirby-Bauer disk diffusion (see Table 2).
In total, 296 minimum inhibitory concentrations (MICs) from the VITEK®2 GN81 platform and 224 zone sizes on disk diffusion were evaluated.

[2] = test system: 23 different positive blood culture (PBC) samples comprising seven different species of bacteria; assay: VITEK 2 GN81 automated AST of 0.5 McFarland inocula (present method vs traditional subculture); type: cell-based; conditions: for # I: number of isolates deemed intermediate (I); for # R: number of isolates deemed resistant (R); for # S: number of isolates deemed susceptible (S)
Procedure: as §1, §2, §3

[3] = test system: KOx harboring the KPC-3 gene; assay: Disk diffusion AST, single isolate with major error; type: cell-based, Klebsiella oxytoca
Procedure: as §3

[4] = inoculum prepared using the present method 1700

Row | Molecule | # I [1] | # R [1] | # S [1] | # I [2] | # R [2] | # S [2] | susceptibility category ([3]; control 0.5 McFarland inoculum) | zone size ([3]; control 0.5 McFarland inoculum) [mm] | susceptibility category [3, 4] | zone size [3, 4] [mm]
1 | Piperacillin-tazobactam | 1 | 3 | 14 | 1 | 3 | 5 |  |  |  | 
2 | C[C@@H](O)[C@H]1C(=O)N2C(C(=O)O)=C(S[C@@H]3CN[C@H](C(=O)N(C)C)C3)[C@H](C)[C@H]12 [Meropenem] |  |  |  |  |  |  | susceptible | 23 | resistant | 19
3 | Amoxicillin-Clavulanic acid | 0 | 7 | 6 | 1 | 6 | 6 |  |  |  | 
4 | Gentamicin | 1 | 2 | 20 | 1 | 2 | 20 |  |  |  | 
5 | Trimethoprim-sulfamethoxazole |  |  |  | 0 | 6 | 11 |  |  |  | 
